The values that follow come from ChEMBL document CHEMBL1134832, “Conformational analysis of tandospirone in aqueous solution: lead evolution of potent dopamine D4 receptor ligands” (Bioorg Med Chem Lett, 2001).

The target in test [1] is T1, 5-hydroxytryptamine receptor 1A (Homo sapiens, UniProt P08908).
T1 sequence (P08908 whole entry): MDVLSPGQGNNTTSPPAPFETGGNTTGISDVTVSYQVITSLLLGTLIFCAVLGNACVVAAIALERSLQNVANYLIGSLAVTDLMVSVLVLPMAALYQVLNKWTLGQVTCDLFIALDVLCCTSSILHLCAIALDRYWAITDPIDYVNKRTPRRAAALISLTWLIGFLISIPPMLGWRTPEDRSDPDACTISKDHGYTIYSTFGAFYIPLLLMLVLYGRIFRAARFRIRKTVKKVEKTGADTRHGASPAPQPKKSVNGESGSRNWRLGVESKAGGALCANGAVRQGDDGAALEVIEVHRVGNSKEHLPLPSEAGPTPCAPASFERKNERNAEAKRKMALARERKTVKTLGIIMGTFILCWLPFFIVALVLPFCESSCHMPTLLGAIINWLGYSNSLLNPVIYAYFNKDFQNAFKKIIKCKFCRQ
In words: Binding affinity to 5-hydroxytryptamine 1A receptor was determined.

The target of the next test is T2, D(4) dopamine receptor (Homo sapiens, UniProt P21917).
T2 sequence (P21917 whole entry): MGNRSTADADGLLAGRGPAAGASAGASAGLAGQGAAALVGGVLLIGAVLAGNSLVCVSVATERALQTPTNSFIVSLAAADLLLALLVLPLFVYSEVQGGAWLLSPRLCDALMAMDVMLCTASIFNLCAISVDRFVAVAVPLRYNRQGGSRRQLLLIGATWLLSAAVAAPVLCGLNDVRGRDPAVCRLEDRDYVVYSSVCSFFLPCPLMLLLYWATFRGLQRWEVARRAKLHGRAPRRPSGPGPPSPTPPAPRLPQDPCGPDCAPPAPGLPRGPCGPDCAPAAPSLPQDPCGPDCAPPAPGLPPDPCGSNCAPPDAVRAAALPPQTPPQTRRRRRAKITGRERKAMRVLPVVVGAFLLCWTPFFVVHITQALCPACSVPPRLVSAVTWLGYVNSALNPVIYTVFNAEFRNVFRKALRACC
Put plainly: Binding affinity to Dopamine receptor D4 was determined.

The next test deals with D(2) dopamine receptor (Homo sapiens, UniProt P14416). Put plainly: Binding affinity to Dopamine receptor D2 was determined.

Usually Ki stands for the dissociation constant of the complex between target and ligand, obtained from inhibition or displacement. Read a low Ki as higher affinity.

Sequence of D(2) dopamine receptor (P14416 whole entry): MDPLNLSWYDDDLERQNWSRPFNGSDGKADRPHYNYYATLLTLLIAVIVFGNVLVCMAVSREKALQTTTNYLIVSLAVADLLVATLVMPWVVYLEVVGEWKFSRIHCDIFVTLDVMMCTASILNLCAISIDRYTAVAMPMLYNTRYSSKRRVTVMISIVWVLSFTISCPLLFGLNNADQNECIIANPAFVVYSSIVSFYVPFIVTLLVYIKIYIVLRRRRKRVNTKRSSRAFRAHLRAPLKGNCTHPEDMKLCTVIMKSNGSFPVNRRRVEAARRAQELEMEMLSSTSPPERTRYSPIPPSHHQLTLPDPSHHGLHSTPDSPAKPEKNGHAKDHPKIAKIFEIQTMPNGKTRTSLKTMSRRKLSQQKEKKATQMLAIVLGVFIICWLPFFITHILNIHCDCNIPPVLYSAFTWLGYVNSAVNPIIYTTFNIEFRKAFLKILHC

Turning to `CN1CCN(c2nc3ccccc3c(Cl)c2Sc2ccccc2)CC1`, the Ki in test [1] is 2000 nM; at D(4) dopamine receptor, 92 nM; on D(2) dopamine receptor, 31 nM.
For the compound `O=C1[C@@H]2[C@H]3CC[C@H](C3)[C@@H]2C(=O)N1CCCCN1CCN(c2ncccn2)CC1` [TANDOSPIRONE], the Ki is 32 nM in test [1], 7.2 nM on D(4) dopamine receptor and 460 nM at D(2) dopamine receptor.
For the compound `Cc1nc(Cl)c(Sc2ccc(Cl)cc2)c(N2CCN(C)CC2)n1`, the Ki in test [1] turned out to be 1500 nM; on D(4) dopamine receptor, 260 nM; at D(2) dopamine receptor, 62 nM.
Take `CNc1nc(Cl)c(Sc2ccccc2)c(N2CCN(C)CC2)n1`: the Ki in test [1] stood at 460 nM; at D(4) dopamine receptor, 250 nM; on D(2) dopamine receptor, 188 nM.
In the same order, the values of `CNc1nc(Cl)c(SC)c(N2CCN(C)CC2)n1` [MEZILAMINE] are 430 nM, above 10000 nM and 5.4 nM.
On to `Cc1nc(Cl)c(Sc2ccc(Cl)cc2)c(NC2CCN(Cc3ccccc3)CC2)n1`, for which the Ki in test [1] came to 160 nM; at D(4) dopamine receptor, 2.3 nM; on D(2) dopamine receptor, 62 nM.
